Species on record: Rattus norvegicus
Experiment: DrugMatrix - Regimen: Daily Repeat
Type: toxicity, organism-based, Sprague-Dawley
Design: regimen Daily Repeat, gender Male, age 6-8 weeks
Conditions: in vivo, po, route oral GAVAGE, vehicle 100 % WATER; for ABSOLUTE BASOPHIL / ABSOLUTE EOSINOPHIL / ABSOLUTE LYMPHOCYTE / ABSOLUTE MONOCYTE / ABSOLUTE SEGMENTED NEUTROPHIL / BASOPHIL / EOSINOPHIL / ERYTHROCYTE COUNT / HEMATOCRIT / HEMOGLOBIN / LEUKOCYTE COUNT / LYMPHOCYTE / MEAN CORPUSCULAR HEMOGLOBIN / MEAN CORPUSCULAR HEMOGLOBIN CONCENTRATION / MEAN CORPUSCULAR VOLUME / MONOCYTE / NEUTROPHIL / NUCLEATED RED BLOOD CELLS / PLATELET COUNT: tissue Blood; for ALANINE AMINOTRANSFERASE / ALBUMIN / ALKALINE PHOSPHATASE / ASPARTATE AMINOTRANSFERASE / BLOOD UREA NITROGEN / CARBON DIOXIDE / CHLORIDE / CHOLESTEROL / CREATINE PHOSPHOKINASE / CREATININE / GLUCOSE / LACTATE DEHYDROGENASE / LIPASE / PHOSPHORUS / POTASSIUM / SODIUM / TOTAL BILIRUBIN / TOTAL PROTEIN / URIC ACID: tissue Plasma
[1] = 0 mg/kg, 72 h, dose level Control, time 3 day
[2] = 0 mg/kg, 120 h, dose level Control, time 5 day
[3] = 10 mg/kg, 72 h, dose level Low, time 3 day

`CC(C)(C)NC[C@H](O)COc1nsnc1N1CCOCC1` [TIMOLOL] was tested, and the “ABSOLUTE BASOPHIL” value [1] was 0 CELLS/uL, the “ABSOLUTE EOSINOPHIL” value [1] was 0 CELLS/uL and the “ABSOLUTE LYMPHOCYTE” value [1] was 8482.5 CELLS/uL. For the same compound, the “ABSOLUTE MONOCYTE” value [1] was 63.83 CELLS/uL, the “ABSOLUTE SEGMENTED NEUTROPHIL” value [1] was 887 CELLS/uL and the BASOPHIL [1] was 0%. The EOSINOPHIL [1] was 0%, the “ERYTHROCYTE COUNT” value [1] was 5.49 x10E6/uL and the HEMATOCRIT [1] was 34.5%. For the same compound, the HEMOGLOBIN [1] was 13.33 G/DL, the “LEUKOCYTE COUNT” value [1] was 9.43 x10E3/uL and the LYMPHOCYTE [1] was 90.17%. For the same compound, the “MEAN CORPUSCULAR HEMOGLOBIN” value [1] was 24.3 pg, the “MEAN CORPUSCULAR HEMOGLOBIN CONCENTRATION” value [1] was 38.63 G/DL and the “MEAN CORPUSCULAR VOLUME” value [1] was 62.88 fL. For the same compound, the MONOCYTE [1] was 0.67%, the NEUTROPHIL [1] was 9.17% and the “NUCLEATED RED BLOOD CELLS” value [1] was 0.67 /100WBC. The “PLATELET COUNT” value [1] was 1022.83 x10E3/uL, the “ALANINE AMINOTRANSFERASE” value [1] was 50.5 u/L and the ALBUMIN [1] was 4.08 G/DL. For the same compound, the “ALKALINE PHOSPHATASE” value [1] was 368.33 u/L, the “ASPARTATE AMINOTRANSFERASE” value [1] was 87.5 u/L and the “BLOOD UREA NITROGEN” value [1] was 12.83 mg/dL. For the same compound, the “CARBON DIOXIDE” value [1] was 32.83 mmol/L, the CHLORIDE [1] was 99.67 MEQ/L and the CHOLESTEROL [1] was 79.67 mg/dL. The “CREATINE PHOSPHOKINASE” value [1] was 585 u/L, the CREATININE [1] was 0.22 mg/dL and the GLUCOSE [1] was 135.67 mg/dL. For the same compound, the “LACTATE DEHYDROGENASE” value [1] was 171 u/L, the LIPASE [1] was 9.5 u/L and the PHOSPHORUS [1] was 11.18 mg/dL. For the same compound, the POTASSIUM [1] was 6.25 MEQ/L, the SODIUM [1] was 144.87 MEQ/L and the “TOTAL BILIRUBIN” value [1] was 0.2 mg/dL. The “TOTAL PROTEIN” value [1] was 6.08 G/DL, the “URIC ACID” value [1] was 0.65 mg/dL and the “ABSOLUTE BASOPHIL” value [2] was 0 CELLS/uL. The “ABSOLUTE EOSINOPHIL” value [2] was 14.5 CELLS/uL, the “ABSOLUTE LYMPHOCYTE” value [2] was 7596.17 CELLS/uL and the “ABSOLUTE MONOCYTE” value [2] was 69.67 CELLS/uL. For the same compound, the “ABSOLUTE SEGMENTED NEUTROPHIL” value [2] was 503 CELLS/uL, the BASOPHIL [2] was 0% and the EOSINOPHIL [2] was 0.17%. The “ERYTHROCYTE COUNT” value [2] was 5.49 x10E6/uL, the HEMATOCRIT [2] was 34.72% and the HEMOGLOBIN [2] was 13.47 G/DL. For the same compound, the “LEUKOCYTE COUNT” value [2] was 8.18 x10E3/uL, the LYMPHOCYTE [2] was 92.17% and the “MEAN CORPUSCULAR HEMOGLOBIN” value [2] was 24.57 pg. The “MEAN CORPUSCULAR HEMOGLOBIN CONCENTRATION” value [2] was 38.82 G/DL, the “MEAN CORPUSCULAR VOLUME” value [2] was 63.3 fL and the MONOCYTE [2] was 1%. The NEUTROPHIL [2] was 6.67%, the “NUCLEATED RED BLOOD CELLS” value [2] was 0 /100WBC and the “PLATELET COUNT” value [2] was 1141 x10E3/uL. For the same compound, the “ALANINE AMINOTRANSFERASE” value [2] was 48.33 u/L, the ALBUMIN [2] was 4.07 G/DL and the “ALKALINE PHOSPHATASE” value [2] was 395.67 u/L. The “ASPARTATE AMINOTRANSFERASE” value [2] was 85.67 u/L, the “BLOOD UREA NITROGEN” value [2] was 15.83 mg/dL and the “CARBON DIOXIDE” value [2] was 31.33 mmol/L. The CHLORIDE [2] was 100.83 MEQ/L, the CHOLESTEROL [2] was 62.33 mg/dL and the “CREATINE PHOSPHOKINASE” value [2] was 248.33 u/L. For the same compound, the CREATININE [2] was 0.2 mg/dL, the GLUCOSE [2] was 135.67 mg/dL and the “LACTATE DEHYDROGENASE” value [2] was 141.33 u/L. The LIPASE [2] was 9.5 u/L, the PHOSPHORUS [2] was 10.73 mg/dL and the POTASSIUM [2] was 6.07 MEQ/L. For the same compound, the SODIUM [2] was 145.35 MEQ/L, the “TOTAL BILIRUBIN” value [2] was 0.22 mg/dL and the “TOTAL PROTEIN” value [2] was 6.12 G/DL. For the same compound, the “URIC ACID” value [2] was 0.63 mg/dL, the “ABSOLUTE BASOPHIL” value [3] was 0 CELLS/uL and the “ABSOLUTE EOSINOPHIL” value [3] was 0 CELLS/uL. For the same compound, the “ABSOLUTE LYMPHOCYTE” value [3] was 11252 CELLS/uL, the “ABSOLUTE MONOCYTE” value [3] was 71.67 CELLS/uL and the “ABSOLUTE SEGMENTED NEUTROPHIL” value [3] was 843 CELLS/uL. The BASOPHIL [3] was 0%, the EOSINOPHIL [3] was 0% and the “ERYTHROCYTE COUNT” value [3] was 5.24 x10E6/uL. The HEMATOCRIT [3] was 32.97%, the HEMOGLOBIN [3] was 12.83 G/DL and the “LEUKOCYTE COUNT” value [3] was 12.17 x10E3/uL. For the same compound, the LYMPHOCYTE [3] was 92.33%, the “MEAN CORPUSCULAR HEMOGLOBIN” value [3] was 24.5 pg and the “MEAN CORPUSCULAR HEMOGLOBIN CONCENTRATION” value [3] was 38.93 G/DL. For the same compound, the “MEAN CORPUSCULAR VOLUME” value [3] was 62.97 fL, the MONOCYTE [3] was 0.67% and the NEUTROPHIL [3] was 7%. The “NUCLEATED RED BLOOD CELLS” value [3] was 0 /100WBC, the “PLATELET COUNT” value [3] was 939 x10E3/uL and the “ALANINE AMINOTRANSFERASE” value [3] was 57 u/L. The ALBUMIN [3] was 4.03 G/DL, the “ALKALINE PHOSPHATASE” value [3] was 444 u/L and the “ASPARTATE AMINOTRANSFERASE” value [3] was 84.67 u/L. The “BLOOD UREA NITROGEN” value [3] was 14.67 mg/dL, the “CARBON DIOXIDE” value [3] was 33 mmol/L and the CHLORIDE [3] was 100 MEQ/L. The CHOLESTEROL [3] was 81.67 mg/dL, the “CREATINE PHOSPHOKINASE” value [3] was 370 u/L and the CREATININE [3] was 0.37 mg/dL. For the same compound, the GLUCOSE [3] was 138.33 mg/dL, the “LACTATE DEHYDROGENASE” value [3] was 111.33 u/L and the LIPASE [3] was 10.67 u/L. For the same compound, the PHOSPHORUS [3] was 11.57 mg/dL, the POTASSIUM [3] was 6.01 MEQ/L and the SODIUM [3] was 145.4 MEQ/L. The “TOTAL BILIRUBIN” value [3] was 0.17 mg/dL, the “TOTAL PROTEIN” value [3] was 5.77 G/DL and the “URIC ACID” value [3] was 0.6 mg/dL.

— ChEMBL document CHEMBL3885881, “DrugMatrix”
